From patent publication US20240101584A1, “TARGETED DELIVERY OF 1,2,4,5 TETRAOXANE COMPOUNDS AND THEIR USES” (Westlake University, priority 2021, published 2024)
Like-named read-outs stand apart in the source and are kept apart here.

Tests used:
MDA-MB-231 cells [1] = experiment: MTT viability assay, MDA-MB-231 cells; assay type: cell-based; settings: for IC50: Homo sapiens; for fold more potent than FINO2 in eradicating MDA-MB-231 cells: comparator FINO2; for fold more cytotoxic than OZ439 on MDA-MB-231: comparator OZ439 (literature)
Outline: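 Mouse brain bEnd.3 cells were tested alongside human lines: cervix Hela, breast cancer MDA-MB-231 and mammary ductal T47D.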

Hela cells = experiment: MTT viability assay, Hela cells; assay type: cell-based, human; settings: Homo sapiens, HeLa, 48 h incubation, mean, n = 3, read-out: IC50 against Hela cells
Description: (§1) The anticancer activities of the exemplary compounds listed in Example 1 were tested against human cervix Hela cells, mammary breast cancer MDA-MB-231 cells, human hepatocellular HepG2 cells, human colorectal HCT116 cells, mammary ductal T47D cells, non-cancerous NIH3T3 cells, dog's kidney MDCK cells, and mouse brain bEnd.3 cells, respectively.

T47D cells = experiment: MTT viability assay, T47D cells; assay type: cell-based; settings: for IC50: Homo sapiens, T47D
Description: as §1

HCT116 cells = experiment: MTT viability assay, HCT116 cells; assay type: cell-based, human; settings: for IC50: Homo sapiens, HCT-116; for fold more cytotoxic to HCT116 cells than OZ277: comparator OZ277; for fold more cytotoxic than OZ439 on HCT116: comparator OZ439 (literature)
Outline: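 The same panel also contained HepG2, HCT116, non-cancerous NIH3T3 and MDCK cells. Here, bEnd.3 is a mouse brain line, Hela is human cervix, MDA-MB-231 is mammary breast cancer and T47D is mammary ductal.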

PLC = experiment: Viability IC50, PLC cells; assay type: cell-based; settings: Table 12a
MCF7 = experiment: Viability IC50, MCF7 cells; assay type: cell-based; settings: Homo sapiens, Table 12a
HeyA8 cells = experiment: CellTiter-Glo viability, adherent HeyA8 ovarian cancer cells; assay type: cell-based; settings: HEY A8; adherent cancer cells; CellTiter-Glo, 48 hrs, n = 3
HEYA8 CSCs = experiment: CellTiter-Glo viability, HeyA8 cancer stem cells (spheres); assay type: cell-based; settings: for IC50: HEY A8, cancer stem cell spheres, CellTiter-Glo, 48 hrs, n = 3, read-out: IC50 HeyA8sp (HEYA8 CSCs); for cell viability of ovarian cancer cells and cancer stem cells (FIG. 3C, words): both ovarian cancer cells and CSCs
NIH3T3 = experiment: CellTiter-Glo viability, NIH3T3 cells (Table 14); assay type: cell-based; settings: Mus musculus, 48 hrs, n = 3
MDA-MB-231 cells [2] = experiment: Ferroptosis inhibitor rescue (Fer-1, liproxstatin-1) in MDA-MB-231 cells; assay type: cell-based; settings: 24 h; for effect of Fer-1 on MDA-MB-231 cell death: Fer-1 50 μM
Description: FIG. 8A is a bar graph showing the effect of Fer-1 (50 μM) on MDA-MB-231 cells treated with compounds 37b, 37a, and 30b, respectively, at the indicated concentrations for 24 h. […], **P≤0.01, ***P≤0.001 versus non-pretreated cells, N.S., no statistically significant change. Data represent mean±SD, n=3 biologically independent samples. All P values were determined using two-tailed Student's t-test.
FIG. 8B is a bar graph showing the effect of Fer-1 (50 μM) on MDA-MB-231 cells treated with compounds 6b, 48, 30a, and 37f, respectively, at the indicated concentrations for 24 h. *P≤0.01, **P≤0.002, ***P≤0.001 versus non-pretreated cells. Data represent mean±SD, n=3 biologically independent samples. FIG. 8C is a bar graph showing the effect of Fer-1 and DFO on MDA-MB-231 cells treated with compounds 56 and 53, respectively, at the indicated concentrations for 24 h. *P≤0.01, **P≤0.002, ***P≤0.001 versus non-pretreated cells. All P values were determined using two-tailed Student's t-test.
FIG. 9 is a bar graph showing the effect of liproxstatin ([…]) on MDA-MB-231 cells treated with compounds 48 and 37b, respectively, at the indicated concentrations for 24 h. **P≤0.01 versus non-pretreated cells. Data represent mean±SD, n=3 biologically independent samples. All P values were determined using two-tailed Student's t-test.
Fer-1 was used to investigate the cell death pathway induced by the compounds described herein. Liproxstatin-1 was used to further confirm whether 48 and 37b triggered off ferroptosis in MDA-MB-231 cells.

[3] = test system: lipid ROS in MDA-MB-231 cells; experiment: C11-BODIPY lipid ROS detection in MDA-MB-231 cells; assay type: cell-based; settings: 48 5 μM, 37b 1 μM, RSL3 0.5 μM; 6 h incubation
Description: FIG. 11 is a bar graph showing the detection of lipid ROS with compound 48 (5 μM), compound 37b (1 μM), or RSL3 (0.5 μM) by BODIPY 581/591 C11 after 6 h incubation in MDA-MB-231 cells. **P≤0.01 versus DMSO group. Data are plotted as the mean±SD, n=3 biologically independent samples. All P values were determined using two-tailed Student's t-test.
Since lipid peroxidation is the evidence about ferroptosis, C11-BODIPY probe is used to validate the lipid ROS generated by tetraoxanes. It is a ratiometric membrane-targeted probe which changes the emission from 590 nm to 510 nm upon the detection of lipid ROS. Here, MDA-MB-231 cells were treated with 48, 37b and RSL3, respectively. The lipid ROS levels were quantified by flow cytometry. Untreated group gave weak signal in FL1 channel (FIG. 11).

[4] = MDA-MB-231, Table 12b, read-out: IC50 MDA-MB-231
[5] = MTT, 48 h incubation, mean, n = 3, read-out: IC50 against T47D cells
[6] = MTT, 48 h incubation, mean, n = 3, read-out: IC50 against HCT116 cells
[7] = Table 12b, read-out: IC50 HCT116

| SMILES | IC50 (MDA-MB-231 cells [1]; [4]) | fold more potent than FINO2 in eradicating MDA-MB-231 cells (MDA-MB-231 cells [1]) | fold more cytotoxic than OZ439 on MDA-MB-231 (MDA-MB-231 cells [1]) | IC50 (Hela cells) | IC50 (T47D cells; [5]) | IC50 (T47D cells; Table 12b, read-out: IC50 T47D) | selectivity index (IC50 of NIH3T3 divided by IC50 on T47D) (T47D cells; Table 12b, value in bracket) | IC50 (HCT116 cells; [6]) | IC50 (HCT116 cells; [7]) | fold more cytotoxic to HCT116 cells than OZ277 (HCT116 cells) | fold more cytotoxic than OZ439 on HCT116 (HCT116 cells) | IC50 (PLC) | IC50 (MCF7) | IC50 (HeyA8 cells) | IC50 (HEYA8 CSCs) | cell viability of ovarian cancer cells and cancer stem cells (FIG. 3C, words) (HEYA8 CSCs) | IC50 (NIH3T3) | effect of liproxstatin-1 pretreatment on MDA-MB-231 cell death (MDA-MB-231 cells [2]) | effect of Fer-1 on MDA-MB-231 cell death (MDA-MB-231 cells [2]) | lipid ROS (BODIPY 581/591 C11, FL1, flow cytometry) [3] | also measured |
| --- | --- | --- | --- | --- | --- | --- | --- | --- | --- | --- | --- | --- | --- | --- | --- | --- | --- | --- | --- | --- | --- |
| CC(C)(C)C1CCC2(CC1)OOC1(CCC(OC(=O)NCCC[N+](C)(Cc3ccccc3)Cc3ccccc3)CC1)OO2.[I-] (stereo not drawn) [Compound 48, N,N-dibenzyl-3-((((12-(tert-butyl)-7,8,15,16-tetraoxadispiro[5.2.59.26]hexadecan-3-yl)oxy)carbonyl)amino)-N-methylpropan-1-aminium iodide] | 2.4 ± 0.7 µM | at least 4 fold | 10 fold | 6.3 µM | 1.7 µM | 1.7 ± 0.3 µM | (>17) | 2.2 ± 0.3 µM | 2.2 ± 0.3 µM | 44 fold | 29 fold | 3.9 ± 0.6 µM | 8.7 ± 4.1 µM | 2.3 ± 0.7 µM | 1.2 ± 0.5 µM | could diminish the cell viability | 29 ± 5.7 µM | prevented the cell death | subverted MDA-MB-231 cell death | lipid ROS was generated | IC50 (MDA-MB-231 cells [1]; MDA-MB-231, 48 h, MTT, 48 h incubation, mean, n = 3, read-out: IC50 against MDA-MB-231 cells): < 4 µM; IC50 (MDA-MB-231 cells [1]; MDA-MB-231, 48 h, Table 13, experimental data, MTT, 48 hrs, n = 3, read-out: IC50 MDA-MB-231): 2.4 ± 0.7 µM; selectivity index (IC50 of NIH3T3 divided by IC50 on MDA-MB-231) (MDA-MB-231 cells [1]; Table 13, value in bracket): (>12); IC50 (T47D cells; Table 13, experimental data, MTT, 48 hrs, n = 3, read-out: IC50 T47D): 1.7 ± 0.3 µM; selectivity index (IC50 of NIH3T3 divided by IC50 on T47D) (T47D cells; Table 13, value in bracket): (>17); IC50 (HCT116 cells; Table 13, experimental data, MTT, 48 hrs, n = 3, read-out: IC50 HCT116): 2.2 ± 0.3 µM; selectivity index (IC50 of NIH3T3 divided by IC50 on HCT116) (HCT116 cells; Table 13, value in bracket): (>13); fold more cytotoxic to HEYA8 CSCs than non-cancerous cells (HEYA8 CSCs): at least 24 fold |
| CC(C)(C)C1CCC2(CC1)OOC1(CCC(OC(=O)NCCC[P+](c3ccccc3)(c3ccccc3)c3ccccc3)CC1)OO2.[Br-] (stereo not drawn) [Compound 37b, (3-((((12-(tert-butyl)-7,8,15,16-tetraoxadispiro[5.2.59.26]hexadecan-3-yl)oxy)carbonyl)amino)propyl)triphenylphosphonium bromide] | 0.4 ± 0.05 µM | ≥ 25 fold | 64 fold | 1.6 µM | 0.62 µM | 0.6 ± 0.1 µM | (>7.6) | 0.6 ± 0.3 µM | 0.6 ± 0.3 µM | 113 fold | 106 fold | 2.7 ± 0.02 µM | 2.4 ± 1.7 µM | 1.4 ± 0.07 µM | 1.1 ± 0.4 µM | could diminish the cell viability | 4.6 ± 1.9 µM | prevented the cell death | subverted MDA-MB-231 cell death | lipid ROS was generated | selectivity index (IC50 of NIH3T3 divided by IC50 on MDA-MB-231) (MDA-MB-231 cells [1]; Table 12b, value in bracket): (>11.5); fold more cytotoxic to MDA-MB-231 cells than OZ277 (MDA-MB-231 cells [1]; comparator OZ277): 87 fold; selectivity index (IC50 of NIH3T3 divided by IC50 on HCT116) (HCT116 cells; Table 12b, value in bracket): (>7.6) |
